Test results taken from patent US6737383B1, “Herbicidal oxadiazolidines” (priority 1999, dated 2004).

How the values were obtained:
cocklebur = test: Test B pre/postemergence cocklebur; format: in vivo, Xanthium strumarium; conditions: for Cocklebur plant response rating: scale of 0 to 10 where 0 is no effect and 10 is complete control
How it was run: (§1)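 Test chemicals in a non-phytotoxic solvent mixture with surfactant were sprayed preemergence onto planted seeds and postemergence onto plants 2 to 18 cm tall (1- to 4-leaf stage). After twelve to sixteen days in a greenhouse, injury was visually rated against untreated controls from 0 (no effect) to 10 (complete control).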

morningglory = test: Test B pre/postemergence morningglory; format: in vivo, Ipomoea hederacea; conditions: for Morningglory plant response rating: scale of 0 to 10 where 0 is no effect and 10 is complete control
How it was run: as §1

rape = test: Test B pre/postemergence rape; format: in vivo, Brassica napus; conditions: for Rape plant response rating: scale of 0 to 10 where 0 is no effect and 10 is complete control
How it was run: as §1

rice = test: Test B flood test rice; format: in vivo, Oryza sativa; conditions: Pre-emergence
How it was run: (§2)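 Flood test on plants grown to the 2-leaf stage; treated plants kept in greenhouse twelve to sixteen days, then visually rated against controls on a 0 (no effect) to 10 (complete control) scale.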

soybean = test: Test B pre/postemergence soybean; format: in vivo, Glycine max; conditions: for Soybean plant response rating: scale of 0 to 10 where 0 is no effect and 10 is complete control
How it was run: as §1

velvetleaf = test: Test B pre/postemergence velvetleaf; format: in vivo, Abutilon theophrasti; conditions: for Velvetleaf plant response rating: scale of 0 to 10 where 0 is no effect and 10 is complete control
How it was run: as §1

sugar beet = test: Test B pre/postemergence sugar beet; format: in vivo, Beta vulgaris; conditions: for Sugarbeets plant response rating: scale of 0 to 10 where 0 is no effect and 10 is complete control
How it was run: as §1

giant foxtail = test: Test B pre/postemergence giant foxtail; format: in vivo, Setaria faberii; conditions: for Giant foxtail plant response rating: scale of 0 to 10 where 0 is no effect and 10 is complete control
How it was run: as §1

bamyardgrass = test: Test B flood test barnyardgrass; format: in vivo, Echinochloa crus-galli; conditions: Pre-emergence
How it was run: as §2

wheat = test: Test B pre/postemergence wheat; format: in vivo, Triticum aestivum; conditions: for Wheat plant response rating: scale of 0 to 10 where 0 is no effect and 10 is complete control
How it was run: as §1

purple nutsedge = test: Test B pre/postemergence purple nutsedge; format: in vivo, Cyperus rotundus; conditions: for Nutsedge plant response rating: scale of 0 to 10 where 0 is no effect and 10 is complete control
How it was run: as §1

pigweed = test: Test B pre/postemergence pigweed; format: in vivo, Amaranthus retroflexus; conditions: for Redroot pigweed plant response rating: scale of 0 to 10 where 0 is no effect and 10 is complete control
How it was run: as §1

wild oat = test: Test B pre/postemergence wild oat; format: in vivo, Avena fatua; conditions: for Wild oats plant response rating: scale of 0 to 10 where 0 is no effect and 10 is complete control
How it was run: as §1

blackgrass = test: Test B pre/postemergence blackgrass; format: in vivo, Alopecurus myosuroides; conditions: for Blackgrass plant response rating: scale of 0 to 10 where 0 is no effect and 10 is complete control
How it was run: as §1

duck salad = test: Test B flood test duck salad; format: in vivo, Heteranthera limosa; conditions: Pre-emergence
How it was run: as §2

smallflower flatsedge = test: Test B flood test smallflower flatsedge; format: in vivo, Cyperus difformis; conditions: Pre-emergence
How it was run: as §2

[1] = Postemergence, Rate 125 g/ha, scale 0 to 10, 0 is no effect, 10 is complete control
[2] = Postemergence, Rate 250 g/ha, scale 0 to 10, 0 is no effect, 10 is complete control
[3] = Preemergence, Rate 62 g/ha, scale 0 to 10 (0 no effect, 10 complete control)
[4] = Rate 500 g/ha, Postemergence, scale 0 to 10, 0 no effect, 10 complete control
[5] = Rate 62 g/ha, flood test species, visual evaluation after twelve to sixteen days
[6] = Rate 125 g/ha, flood test species, scale 0 to 10 where 0 is no effect and 10 is complete control
[7] = Rate 250 g/ha, flood-test species, scale 0 to 10, 0 is no effect, 10 is complete control
[8] = Rate 500 g/ha, flood test species, scale 0 to 10 (0 no effect, 10 complete control)

CC(C)N(C(=O)n1oc(=O)n(C)c1=O)c1ccc(F)cc1F [Compound 368]
Plant response rating, Cocklebur (cocklebur; [1]): 2
Plant response rating, Cocklebur (cocklebur; [2]): 3
Plant response rating, Cocklebur (cocklebur; [3]): 0
Cocklebur plant response rating (0 to 10 scale) (cocklebur; Preemergence, Rate 125 g/ha): 0
Cocklebur plant response rating (cocklebur; Preemergence, Rate 250 g/ha): 0
Cocklebur plant response rating (cocklebur; Preemergence, Rate 500 g/ha): 0
Cocklebur plant response rating (cocklebur; Rate 62 g/ha, Postemergence): 0
Plant response rating, Cocklebur (cocklebur; [4]): 5
Plant response rating, Morningglory (morningglory; [1]): 4
Plant response rating, Morningglory (morningglory; [2]): 5
Plant response rating, Morningglory (morningglory; [3]): 0
Morningglory plant response rating (0 to 10 scale) (morningglory; Preemergence, Rate 125 g/ha): 1
Morningglory plant response rating (morningglory; Preemergence, Rate 250 g/ha): 3
Morningglory plant response rating (morningglory; Preemergence, Rate 500 g/ha): 5
Morningglory plant response rating (morningglory; Rate 62 g/ha, Postemergence): 2
Plant response rating, Morningglory (morningglory; [4]): 7
Plant response rating, Rape (rape; [1]): 0
Plant response rating, Rape (rape; [2]): 2
Plant response rating, Rape (rape; [3]): 0
Rape plant response rating (0 to 10 scale) (rape; Preemergence, Rate 125 g/ha): 0
Rape plant response rating (rape; Preemergence, Rate 250 g/ha): 6
Rape plant response rating (rape; Preemergence, Rate 500 g/ha): 10
Rape plant response rating (rape; Rate 62 g/ha, Postemergence): 0
Plant response rating, Rape (rape; [4]): 5
Plant response rating, Rice (0 to 10 scale, 0 is no effect, 10 is complete control) (rice; [5]): 0
Rice plant response rating (rice; [6]): 0
Rice plant response rating (rice; [7]): 0
Rice plant response rating (rice; [8]): 5
Plant response rating, Soybean (soybean; [1]): 5
Plant response rating, Soybean (soybean; [2]): 5
Plant response rating, Soybean (soybean; [3]): 0
Soybean plant response rating (0 to 10 scale) (soybean; Preemergence, Rate 125 g/ha): 2
Soybean plant response rating (soybean; Preemergence, Rate 250 g/ha): 7
Soybean plant response rating (soybean; Preemergence, Rate 500 g/ha): 8
Soybean plant response rating (soybean; Rate 62 g/ha, Postemergence): 4
Plant response rating, Soybean (soybean; [4]): 5
Plant response rating, Velvetleaf (velvetleaf; [1]): 0
Plant response rating, Velvetleaf (velvetleaf; [2]): 3
Plant response rating, Velvetleaf (velvetleaf; [3]): 4
Velvetleaf plant response rating (0 to 10 scale) (velvetleaf; Preemergence, Rate 125 g/ha): 7
Velvetleaf plant response rating (velvetleaf; Preemergence, Rate 250 g/ha): 10
Velvetleaf plant response rating (velvetleaf; Preemergence, Rate 500 g/ha): 10
Velvetleaf plant response rating (velvetleaf; Rate 62 g/ha, Postemergence): 0
Plant response rating, Velvetleaf (velvetleaf; [4]): 7
Plant response rating, Sugarbeets (sugar beet; [1]): 0
Plant response rating, Sugarbeets (sugar beet; [2]): 2
Plant response rating, Sugarbeets (sugar beet; [3]): 6
Sugarbeets plant response rating (0 to 10 scale) (sugar beet; Preemergence, Rate 125 g/ha): 8
Sugarbeets plant response rating (sugar beet; Preemergence, Rate 250 g/ha): 10
Sugarbeets plant response rating (sugar beet; Preemergence, Rate 500 g/ha): 10
Sugarbeets plant response rating (sugar beet; Rate 62 g/ha, Postemergence): 0
Plant response rating, Sugarbeets (sugar beet; [4]): 3
Plant response rating, Giant foxtail (giant foxtail; [1]): 8
Plant response rating, Giant foxtail (giant foxtail; [2]): 9
Plant response rating, Giant foxtail (giant foxtail; [3]): 10
Giant foxtail plant response rating (0 to 10 scale) (giant foxtail; Preemergence, Rate 125 g/ha): 10
Giant foxtail plant response rating (giant foxtail; Preemergence, Rate 250 g/ha): 10
Giant foxtail plant response rating (giant foxtail; Preemergence, Rate 500 g/ha): 10
Giant foxtail plant response rating (giant foxtail; Rate 62 g/ha, Postemergence): 8
Plant response rating, Giant foxtail (giant foxtail; [4]): 9
Plant response rating, Barnyardgrass (0 to 10 scale, 0 is no effect, 10 is complete control) (bamyardgrass; [5]): 0
Barnyardgrass plant response rating (bamyardgrass; [6]): 0
Barnyardgrass plant response rating (bamyardgrass; [7]): 0
Barnyardgrass plant response rating (bamyardgrass; [8]): 7
Plant response rating, Wheat (wheat; [1]): 3
Plant response rating, Wheat (wheat; [2]): 4
Plant response rating, Wheat (wheat; [3]): 0
Wheat plant response rating (0 to 10 scale) (wheat; Preemergence, Rate 125 g/ha): 4
Wheat plant response rating (wheat; Preemergence, Rate 250 g/ha): 8
Wheat plant response rating (wheat; Preemergence, Rate 500 g/ha): 10
Wheat plant response rating (wheat; Rate 62 g/ha, Postemergence): 0
Plant response rating, Wheat (wheat; [4]): 6
Plant response rating, Nutsedge (purple nutsedge; [1]): 0
Plant response rating, Nutsedge (purple nutsedge; [2]): 0
Plant response rating, Nutsedge (purple nutsedge; [3]): 0
Nutsedge plant response rating (0 to 10 scale) (purple nutsedge; Preemergence, Rate 125 g/ha): 2
Nutsedge plant response rating (purple nutsedge; Preemergence, Rate 250 g/ha): 10
Nutsedge plant response rating (purple nutsedge; Preemergence, Rate 500 g/ha): 10
Nutsedge plant response rating (purple nutsedge; Rate 62 g/ha, Postemergence): 0
Plant response rating, Nutsedge (purple nutsedge; [4]): 0
Plant response rating, Redroot pigweed (pigweed; [1]): 3
Plant response rating, Redroot pigweed (pigweed; [2]): 4
Plant response rating, Redroot pigweed (pigweed; [3]): 10
Redroot pigweed plant response rating (0 to 10 scale) (pigweed; Preemergence, Rate 125 g/ha): 10
Redroot pigweed plant response rating (pigweed; Preemergence, Rate 250 g/ha): 10
Redroot pigweed plant response rating (pigweed; Preemergence, Rate 500 g/ha): 10
Redroot pigweed plant response rating (pigweed; Rate 62 g/ha, Postemergence): 2
Plant response rating, Redroot pigweed (pigweed; [4]): 7
Plant response rating, Wild oats (wild oat; [1]): 0
Plant response rating, Wild oats (wild oat; [2]): 3
Plant response rating, Wild oats (wild oat; [3]): 4
Wild oats plant response rating (0 to 10 scale) (wild oat; Preemergence, Rate 125 g/ha): 9
Wild oats plant response rating (wild oat; Preemergence, Rate 250 g/ha): 10
Wild oats plant response rating (wild oat; Preemergence, Rate 500 g/ha): 10
Wild oats plant response rating (wild oat; Rate 62 g/ha, Postemergence): 0
Plant response rating, Wild oats (wild oat; [4]): 5
Plant response rating, Blackgrass (blackgrass; [1]): 7
Plant response rating, Blackgrass (blackgrass; [2]): 8
Plant response rating, Blackgrass (blackgrass; [3]): 8
Blackgrass plant response rating (0 to 10 scale) (blackgrass; Preemergence, Rate 125 g/ha): 9
Blackgrass plant response rating (blackgrass; Preemergence, Rate 250 g/ha): 10
Blackgrass plant response rating (blackgrass; Preemergence, Rate 500 g/ha): 10
Blackgrass plant response rating (blackgrass; Rate 62 g/ha, Postemergence): 7
Plant response rating, Blackgrass (blackgrass; [4]): 8
Plant response rating, Ducksalad (0 to 10 scale, 0 is no effect, 10 is complete control) (duck salad; [5]): 0
Ducksalad plant response rating (duck salad; [6]): 0
Ducksalad plant response rating (duck salad; [7]): 0
Ducksalad plant response rating (duck salad; [8]): 0
Plant response rating, S. Flatsedge (0 to 10 scale, 0 is no effect, 10 is complete control) (smallflower flatsedge; [5]): 0
S. Flatsedge plant response rating (smallflower flatsedge; [6]): 0
S. Flatsedge plant response rating (smallflower flatsedge; [7]): 2
S. Flatsedge plant response rating (smallflower flatsedge; [8]): 4
